The results in this text go back to patent publication US20260048036A1, “CRYSTALLINE FORMS OF A GLUCOSYLCERAMIDE SYNTHASE INHIBITOR AND USES THEREOF” (ACELINK THERAPEUTICS, INC., priority 2022, published 2026).

Experiment [1] deals with T1, Glucosylceramide synthase (GCS) (Homo sapiens, UniProt Q16739).
T1 construct: The MDCK, K-562, and L6 cell lines all endogenously express GCS enzyme; host or cells: K-562 human leukemia cells, live
T1 sequence (Q16739 1-394): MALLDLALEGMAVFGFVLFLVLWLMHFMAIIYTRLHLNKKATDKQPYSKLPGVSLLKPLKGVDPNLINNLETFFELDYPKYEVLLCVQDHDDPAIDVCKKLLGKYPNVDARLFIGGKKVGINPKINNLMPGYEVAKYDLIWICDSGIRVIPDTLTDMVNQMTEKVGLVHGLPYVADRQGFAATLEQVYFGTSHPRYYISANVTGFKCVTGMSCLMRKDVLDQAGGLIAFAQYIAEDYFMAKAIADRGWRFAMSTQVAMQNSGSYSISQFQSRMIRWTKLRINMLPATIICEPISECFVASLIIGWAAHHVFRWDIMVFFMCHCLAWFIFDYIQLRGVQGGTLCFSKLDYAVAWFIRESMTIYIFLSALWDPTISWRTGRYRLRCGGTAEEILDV
The experiment is described as follows: GCS cell-based assay with live K-562 cells. The following applies: C6-NBD-glucosylceramide by LC-MS/MS. The source says:
The reaction product, C6-NBD-glucosylceramide, could then be detected and quantified by LC-MS/MS. The inventors used this method to test and validate the effect of various GCS inhibitors on GCS enzyme activity from different species.
The GCS enzyme activity was detected by using the fluorescent substrate, C6-NBD-ceramide, and monitoring the formation of the fluorescent reaction product, C6-NBD-glucosylceramide. First, the inventors used cell lysate derived from a canine kidney cell line (MDCK, ATCC Cat #CCL-34™) as the source of GCS and tested the inhibitory activity of several control and test compounds.
(§1) The quantitative analysis of C6-NBD-glucosylceramide was performed on a Shimadzu ultra-fast liquid chromatography coupled with API 4000 mass spectrometer. Analyst 1.5 software packages were used to control the LC-MS/MS system, as well as for data acquisition and processing.
The C6-NBD-glucosylceramide reading was normalized first by dividing the peak area of C6-NBD-glucosylceramide with the peak area of the internal standard, and then the amount was calculated according to the standard curve generated in the same assay run. For the cell based assay results, the amount of C6-NBD-glucosylceramide was also normalized by the protein concentration of the cell samples. […]

Experiment [2] has as its target T2, Glucosylceramide synthase (GCS) (Rattus norvegicus, UniProt Q9R0E0).
T2 construct: The MDCK, K-562, and L6 cell lines all endogenously express GCS enzyme; host or cells: L6 rat skeletal muscle cell lysate
T2 sequence (Q9R0E0 1-394): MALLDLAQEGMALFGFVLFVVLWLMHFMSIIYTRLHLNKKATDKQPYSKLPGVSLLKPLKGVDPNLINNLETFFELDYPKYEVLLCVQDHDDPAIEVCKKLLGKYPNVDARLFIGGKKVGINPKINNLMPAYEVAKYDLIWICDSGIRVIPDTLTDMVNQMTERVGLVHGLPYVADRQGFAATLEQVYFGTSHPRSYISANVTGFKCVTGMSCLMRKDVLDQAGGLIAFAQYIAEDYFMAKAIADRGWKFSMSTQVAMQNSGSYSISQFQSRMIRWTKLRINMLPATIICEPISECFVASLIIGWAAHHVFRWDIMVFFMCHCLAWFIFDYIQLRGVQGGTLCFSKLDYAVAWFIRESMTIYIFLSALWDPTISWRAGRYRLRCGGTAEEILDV
Kind of experiment: GCS enzymatic assay with L6 cell lysate. It counts as biochemical. The note with it: 0.1 μM, N = 1, N = 2.
Text: In this study, the inventors developed a reliable method to monitor GCS catalytic activity using the fluorescent substrate, C6-NBD-ceramide. The reaction product, C6-NBD-glucosylceramide, could then be detected and quantified by LC-MS/MS. The inventors used this method to test and validate the effect of various GCS inhibitors on GCS enzyme activity from different species.
The MDCK, K-562, and L6 cell lines all endogenously express GCS enzyme and were used to test the effect of various GCS inhibitors on enzyme originating from different species. The GCS enzyme activity was detected by using the fluorescent substrate, C6-NBD-ceramide, and monitoring the formation of the fluorescent reaction product, C6-NBD-glucosylceramide. First, the inventors used cell lysate derived from a canine kidney cell line (MDCK, ATCC Cat #CCL-34™) as the source of GCS and tested the inhibitory activity of several control and test compounds. The inventors then used the human leukemia K-562 cell line (ATCC Cat #[…]) to test the effect of these GCS inhibitors on intact living cells. Finally, a cell lysate derived from a rat skeletal muscle cell line, L6 (ATCC Cat #[…]), was used to test the effect of these GCS inhibitors on rodent GCS enzyme.
GCS activity was evaluated using a GCS enzyme assay derived from MDCK or L6 cell lysates.
MDCK or L6 cell lysates were prepared using M-PER in the presence of a protease inhibitor cocktail. Each 100 mm dish (100% confluent) was lysed with 250 μl of M-PER containing protease inhibitors. Protein concentration was determined using Pierce BCA protein assay kit.
Sixty micrograms of MDCK lysate was incubated with various concentrations of compounds (0.00001 μM-1 μM) in 100 mM Tris buffer (pH 7.5) containing 10 mM MgCl2, 1 mM dithiothreitol, 1 mM EGTA, 2 mM NAD, 100 μM UDP-glucose, 10 μM C6-NBD-ceramide with 35 μM dioleoylphosphatidylcholine/5 μM sulfatide in a final reaction volume of 100 μl at 37° C. for 1 hour. The final concentration of DMSO was 0.1% in both compound treated and DMSO only treated samples. Each individual reaction was terminated with 11 volumes of methanol:acetonitrile (6:5; containing 200 ng/ml Tolbutamide as internal control). After sufficient mixing, reactions were centrifuged at 2000 rpm for 10 mins, supernatant was injected into the LC-MS/MS for analysis.
For the assay with L6 cell lysate, different amounts of L6 cell lysate were used.
as §1
The C6-NBD-glucosylceramide reading was normalized first by dividing the peak area of C6-NBD-glucosylceramide with the peak area of the internal standard, and then the amount was calculated according to the standard curve generated in the same assay run. For the cell based assay results, the amount of C6-NBD-glucosylceramide was also normalized by the protein concentration of the cell samples.
To confirm the inhibitory activity of test compounds on GCS from different species, cells from rat were used. First, the presence of GCS activity was verified using various amounts of L6 cell lysate (FIG. 34, Table 26).

Values joined by “and” are separate entries in the source; they are usually repeats but may differ in a detail not shown here. Equal entries are not always repeated. A value given as a limit tells only on which side of the number the result lay.

The IC50 is the point on the concentration scale where inhibition reaches its midpoint. A lower IC50 goes with greater potency in that assay. Usually Inhibition stands for the relative decrease from the control value, in per cent. Read a high Inhibition as a strong effect. Broadly, the inhibition is how much of the control response was suppressed.

As to `O=C(N[C@H](CN1CCCC1)[C@H](O)c1ccc(OC2CC2)c(Cl)c1)/C(=N/O)c1ccc2cc(Cl)ccc2c1` [Crystalline Form A of Compound 1], half-maximal inhibition in experiment [1] (IC50) required 6.15 nM. In addition, the “C6-NBD-Ceramide (Normalized to internal control)” value in experiment [2] (30 μg L6 lysate/reaction) is 6.69 and 6.31; in experiment [2] (60 μg L6 lysate/reaction), 5.87 and 6.17; in experiment [2] (120 μg L6 lysate/reaction) it was 6.09 and 6.11; in experiment [2] (180 μg L6 lysate/reaction), 5.15 and 5.12; in experiment [2] (240 μg L6 lysate/reaction), 5.72 and 5.61. In addition, the “C6-NBD-Glucosylceramide Concentration” value in experiment [2] (30 μg L6 lysate/reaction) was 9.73 nM and 10.5 nM; in experiment [2] (60 μg L6 lysate/reaction), 22.5 nM and 26.3 nM; in experiment [2] (120 μg L6 lysate/reaction), 45.8 nM and 44.7 nM; in experiment [2] (180 μg L6 lysate/reaction) it was 54.7 nM and 59.0 nM; in experiment [2] (240 μg L6 lysate/reaction), 76.9 nM and 78.2 nM. Besides, the Inhibition was 98.57% and 98.45% in experiment [2] (30 μg L6 lysate/reaction); 97.64% in experiment [2] (60 μg L6 lysate/reaction); 96.74% in experiment [2] (120 μg L6 lysate/reaction); 95.55% in experiment [2] (180 μg L6 lysate/reaction); 93.51% in experiment [2] (240 μg L6 lysate/reaction). The inhibition at 0.1 µM in experiment [2] (30 μg L6 lysate/reaction) was above 98%; in experiment [2] (60 μg L6 lysate/reaction), 98%; in experiment [2] (120 μg L6 lysate/reaction), 96.7%; in experiment [2] (180 μg L6 lysate/reaction), 95.9%; in experiment [2] (240 μg L6 lysate/reaction) it was 93.6%.
